This passage reports IC50 results from ChEMBL document CHEMBL1129772, “Synthesis and radical scavenging activity of 3,3-dialkyl-3,4-dihydro-isoquinoline 2-oxides” (Bioorg Med Chem Lett, 1996).

The test system of the assay is Liposome. Nature of the assay: In vitro inhibition of peroxyl radical-dependent oxidation of liposomes from soybean phosphatidylcholine by ethanol injection. It counts as functional, Glycine max.
What is called IC50 is the point on the concentration scale where inhibition reaches its midpoint. Low values mean greater potency in that assay, high ones weaker potency in that assay. With `CC1(C)Cc2cc(Cl)cc(Cl)c2C=[N+]1[O-]`, the IC50 stood at 18 µM. In other words, the double-digit micromolar range.

Consider `[O-][N+]1=Cc2ccccc2CC12CCCCC2`, for which the 50% inhibitory concentration (IC50) came to 8 µM. Against the preceding compound, the IC50 is about 2.2-fold lower.

`COc1ccc2c(c1)C=[N+]([O-])C(C)(C)C2`: the IC50 was 67 µM. This IC50 is about 8.4-fold higher than that of the compound before.

Turning to `CC1(C)Cc2ccccc2C=[N+]1[O-]`, the IC50 turned out to be 200 µM.

Compound `COc1cc2c(cc1OC)CC(C)(C)[N+]([O-])=C2` had an IC50 of 130 µM. This IC50 is about 1.5-fold lower than that of the compound before.

`CC1(C)Cc2cc(F)ccc2C=[N+]1[O-]` yielded an IC50 of 160 µM. This IC50 and that of the compound before are within 1.5-fold of each other.

`[O-][N+]1=Cc2ccccc2CC12CCCC2` had an IC50 of 21 µM.

`CC1(C)Cc2c(Cl)cccc2C=[N+]1[O-]` came in with an IC50 of 24 µM.

As for `COc1ccc2c(c1)CC1(CCCCC1)[N+]([O-])=C2`, the IC50 stood at 11 µM.

In turn, `CC(C)(C)/[N+]([O-])=C/c1ccccc1` gave an IC50 of 2170 µM. This IC50 is about 200-fold higher than that of the compound before.

In turn, `COc1cccc2c1C=[N+]([O-])C1(CCCCC1)C2` yielded an IC50 of 38 µM.

The compound `CC1(C)Cc2cc(Cl)ccc2C=[N+]1[O-]` had an IC50 of 55 µM.

`CC1(C)Cc2cccc(Cl)c2C=[N+]1[O-]` showed a concentration for half-maximal inhibition (IC50) of 45 µM.

For the compound `CC1(C)Cc2ccc(Cl)cc2C=[N+]1[O-]`, the IC50 stood at 41 µM.

With `CC1(C)Cc2ccc(F)cc2C=[N+]1[O-]`, the midpoint of inhibition, the IC50, lay at 67 µM.

`COc1ccc2c(c1)CC(C)(C)[N+]([O-])=C2` came in with an IC50 of 69 µM.

`[O-][N+]1=Cc2cc(Cl)ccc2CC12CCCCC2` returned an IC50 of 3 µM.

The compound `COc1ccc(F)c2c1CC(C)(C)[N+]([O-])=C2` returned an IC50 of 56 µM. This IC50 lies about 19-fold higher than the previous one.
